Results reported in patent US20100022600A1, “METHODS AND COMPOSITIONS FOR TREATING CENTRAL NERVOUS SYSTEM TUMORS” (priority 2006, published 2010).

Legend:
[1] = Daily body weight in C6 rat glioma model; assay type: in vivo; settings: daily weighing; vehicle group lost weight significantly at 17 d
Description: Before implantation, 85-90% confluent C6 cells were trypsinized, rinsed with DMEM+10% fetal calf serum, and centrifuged at 1000 rpm for 4 min. The cell pellet was resuspended in DMEM and placed on ice. Concentration of viable cells was adjusted to 1×10^5 cells/1 μl of DMEM. Each rat was anesthetized and placed in a stereotactic frame (David Kopf Instruments, Tujunga, Calif., USA), a hole was drilled at AP 0.0, R -3.0 relative to bregma according to the stereotaxic atlas of […], 1963). Tumor cells were injected at a rate of 0.5 μl/s, using a 2 μl Hamilton (#2701) syringe (Reno, Nev., USA) with a 26 s-gauge needle mounted on a stereotactic holder at a depth of 5 mm. […] For intracerebral administration of pio/vehicle (DMSO), the tip of an Alzet-brain-infusion-kit (Cupertino, Calif., USA) was placed in a depth of 5 mm, connected to a 2ML4 Alzet osmotic pump (Cupertino, Calif., USA). Drug administration began 4 h after surgery. […] The pumps were filled with 20 μM pio solved in PBS or vehicle (DMSO, 0.1% final concentration) solved in PBS. Animals were randomly distributed in two groups, treated with pio filled pumps (n=26) or vehicle filled pumps (n=26). Thereafter skull was cleaned and the incision sutured. […] Control animals received Purina chow without additions. Rats were allowed free access to the chow. Tumors were allowed to grow and animals were weighed daily. […]

C6 glioma tumor cells [2] = test: TUNEL assay for apoptosis in tumors, C6 rat glioma model; assay type: in vivo; settings: 9 days of pio treatment
Description: Frozen brain tissue sections were examined for apoptosis using the terminal deoxynucleotidyl transferase-mediated dUTP transferase nick-end labeling (TUNEL assay). Apoptosis was evaluated using the Promega DeadEnd Fluorometric Tunel System (Promega, Madison, Wis., USA) according to the manufacturer's instructions. The percentage of TUNEL positive cells was assessed by counting the immunopositve cells in 1×10^3 tumor (DAPI stain) cells and statistically compared.

C6 glioma tumor cells [3] = test: BrdU incorporation in vivo; parameters: species or system rat; settings: 14 d
Description: At thirteen days of treatment animals were intraperitoneally injected with 300 mg/kg of 5-bromodeoxyuridine (BrdU; Sigma, St. Louis, Mo.), a thymidine analog that incorporates into the DNA of dividing cells during S phase and can be detected immunohistochemically. Twenty-four hours later, these animals were anesthetized and perfused with phosphate-buffered saline (PBS). Brains were dissected, frozen, cut and immunostained in the following manner: Sections were fixed in 4% paraformaldehyde, washed in PBS, and incubated in 2 N HCl for 10 min at room temperature. Sections were again washed in PBS and incubated in BrdU primary antibody (rat monoclonal 1:100, Abcam, Cambridge, UK) in PBS containing 5% normal goat serum overnight at 4 C. After washing with PBS, sections were incubated in rhodamine-labeled anti-rat secondary antibody (1:100, Jackson, West Grove, Pa., USA) in PBS containing 5% normal goat serum for 1 h at room temperature. The number of dividing cells present in the tumor of these BrdU-stained sections was counted and compared to total amount of tumor cells stained with DAPI.

MMP-9 = MMP-9 expression in vivo (western blot, immunohistochemistry); parameters: species or system rat
Description: For western-blot analysis, tumor-containing hemispheres were homogenized in Tris-HCl [50 mM Tris-HCl pH8, 120 mM NaCl, 5 mM EDTA, 0.5% (v/v) NP-40, […] phenylmethylsulfonyl fluoride (PMSF)] and sonicated. Homogenates were collected by centrifugation (15 min 11000 g. 4° C.) and protein concentration in the supernatant was determined using the Bio-Rad Protein Assay (Biorad, Munich, Germany). Lysates (20-40 μg) were separated on a 7% (w/v) sodium dodecyl sulfate (SDS)-polyacrylamide gel under reducing conditions and transferred to a PVDF membrane (Millipore, Bedford, Mass., USA). Non-specific binding was blocked by incubation with 5% (w/v) skimmed milk in TBS for 2 h. Following incubation with the primary antibody overnight at 4° C. [rabbit anti-BAX 1:1000, rabbit anti-cleaved caspase-3 1:1000, mouse […] 1:1000, goat anti-MMP-9 1:1000 in TBS containing 0.1% (v/v) Tween 20] membranes were washed three times in TBS/Tween for 5 min and subsequently incubated for 120 min in TBS/Tween containing secondary peroxidase-conjugated antibody at room temperature (anti-rabbit 1:1000, anti-mouse 1:1000; anti-goat 1:1000 respectively). Signals were visualized by chemoluminescence (Pierce, Rockford, Ill., USA) and band intensities were quantified with NIH Image 1.62 software (Bethesda, Md., USA). Frozen brain sections were first blocked with 5% normal goat serum or normal horse serum in PBS and subsequently incubated with rabbit anti-Ki-67 antibody (1:200 dilution), mouse anti-CS-56 (1:100 dilution), goat anti-MMP-9 (1:100 dilution) or rabbit anti-cleaved caspase-3 antibody (1:200 dilution) at 4° C. overnight. Sections were washed extensively with PBS before incubation with secondary antibodies. Incubation was carried at room temperature for 1 h. After washing with PBS three times, stained slides were mounted with PBS/glycerol (1:1) and viewed under a fluorescent microscope (Leica, Germany).

CS-56 = CS-56 expression in tumor cells in vitro; assay type: cell-based; settings: data not shown

CCc1ccc(CCOc2ccc(CC3SC(=O)NC3=O)cc2)nc1 (centres unmarked) [pioglitazone, 5-[4-[2-(5-ethylpyridin-2-yl)ethoxyl]benzyl]thiazolidine-2,4-dione]
weight loss [1]: did not show any weight loss | TUNEL staining (C6 glioma tumor cells [2]): Increased TUNEL staining | BrdU-incorporation (C6 glioma tumor cells [3]): reduced | percentage of BrdU positive cells (C6 glioma tumor cells [3]): significantly lower | MMP-9 positive staining (immunoreactivity) (MMP-9; tumor margins and surrounding healthy brain tissue): reduced MMP-9 positive staining | MMP-9 expression (western blot) (MMP-9; whole-hemisphere lysates): almost completely suppressed | reduction of MMP-9 expression (densitometry) (MMP-9; whole-hemisphere lysates): 81% | CS-56 expression in vitro (CS-56): highly upregulated
